The values below come from a melting point compilation (Tetko et al.; mined from patent text by program, amines drawn as free bases though some values may be those of a salt).

One may read the melting point as the temperature, or range, at which the solid turns liquid.

SMILES strings stand for the structures. Some results are limits rather than exact numbers.

`Oc1ccc(CCNc2ncnc3c(F)ccc(F)c23)cc1` had a melting point of 221 to 222 °C. The same measure for `NS(=O)(=O)CCNC(=O)OCc1ccccc1`: 107 to 109 °C; for `CC(C)(Oc1ccc(CC(=O)Nc2ccccc2)cc1)C(=O)O`: 198 °C; for `N[C@H]1CC[C@H](CC(=O)N2CCN(c3ccccc3)CC2)CC1`: 90 to 93 °C.

On to `CCCCCNS(=O)(=O)NC(=O)CCc1ccc(OCCOC)cc1Oc1ncc(C(F)(F)F)cc1Cl`, for which the melting point was 153 to 154 °C. The same measure for `Oc1ccc(-c2ccc(C#CC3(O)CN4CCC3CC4)cc2)cc1` (configuration not stated): 230 to 233 °C; for `N#Cc1ccc(C2CC(=O)N(CC3CC3)Cc3cncn32)cc1` (configuration not stated): 178 to 180 °C; for `COC=C(C(=O)OC)N(C)N1CSC(Br)=C1c1ccc(Br)cc1`: 112 °C. To `Cc1ccc(S(=O)(=O)Nc2ccccc(=O)c2O)cc1` belongs 177 to 179 °C; to `O=C1CCC(c2ccccc2)(c2ccccc2)C2CN(C(Cc3ccccc3)=NCc3ccc(Cl)cc3)CC12` (configuration not stated), 198 °C; to `CCOCCn1c(NC2CCN(CC#N)CC2)nc2cccnc21`, 141 °C. As for `CC(C)Cc1cc(NC(=O)c2nccnc2Cl)ccc1C(C(F)(F)F)C(F)(F)F`, the melting point is 128 to 129 °C. The same measure for `NS(=O)(=O)c1ccccc1C(=O)OCCO`: 84 to 86.5 °C. To `CN1C(C(=O)Nc2cccccc2=O)=C(OC(=O)C=Cc2ccccc2)c2sccc2S1(=O)=O` belongs 167 to 170 °C; to `CN(C)Cc1nc(CSCCNC(=N)N[N+](=O)[O-])cs1`, 104 to 106 °C. `Clc1ccc(NN=Cc2ccccc2)cc1` showed a melting point of 122 to 123 °C. Molecule `Cc1ccc(CC(N)C(O)C(N)Cc2ccccc2)cc1` (configuration not stated) yielded a melting point of 126 to 128 °C. As for `CCOC(=O)C(=O)CC(=O)C=Cc1ccc([N+](=O)[O-])cc1`, the melting point was 148 to 154 °C. The same measure for `COc1ccc2c(c1)CCC1CCNC(=O)C(CCNC(C)C)=C21` (configuration not stated): 147 to 149 °C; for `O=C(O)CCCCc1ccc(NS(=O)(=O)c2ccccc2)cn1`: 136 to 138 °C; for `C[Si](C)(C)c1ccc(Cl)s1`: 68 to 69 °C.

For the molecule `OC(c1ccccc1)(c1cccc(C(F)(F)F)c1)c1ncc[nH]1` (configuration not stated), the melting point turned out to be 152 °C. To `COc1cc2c(cc1OC)C(c1ccccc1)N(C(=O)NCCN1CCCCC1)CC2` (configuration not stated) belongs 101 to 102 °C; to `CS(=O)c1ccc(Oc2ccc([N+](=O)[O-])cc2)cc1` (configuration not stated), 76 to 78 °C. The same measure for `O=C(O)COc1ccc(SCc2ccc(-c3ccc(C(F)(F)F)cn3)cc2)c2c1CCCO2`: 178 to 179 °C; for `CCc1c(C(=O)OC(C)C)ncc2[nH]c3ccc4ncc(C)nc4c3c12`: 215 to 216 °C; for `CCOC(=O)c1ccc(-c2ccc(O)cc2)cc1`: 144 to 146 °C. The same measure for `CN1CCC(C(O)(c2ccn(C)c2)c2ncc[nH]2)CC1` (configuration not stated): 171 °C; for `CN(CCN1CCN(Cc2ccc(C(F)(F)F)cc2)CC1)C[C@@]1(C)Cn2cc([N+](=O)[O-])nc2O1`: 102 to 104 °C. In turn, `CC(C)(C)OC(=O)NC(C)(C)c1ccc(-c2nc(Nc3ccc(-n4ccnc4)cc3)ncc2Cl)cc1` showed a melting point of 218 to 220 °C.

`N#Cc1c[nH]c(C(N)=O)c1` registered a melting point of 253 to 256 °C.

`COc1ccc(Cn2c3ncnc4c(ncn4Cc4ccc(OC)cc4)c-3nc2=O)cc1` had a melting point of 175 to 177 °C. To `Nc1ccc(-c2cc(OCC(=O)N3CCOCC3)c3ccccc3n2)cc1` belongs 174 °C. As for `CCCC(C(=O)N(C)C)n1cc(Cl)c(-c2ccccc2)n1` (configuration not stated), the melting point was 85 to 87 °C.

`O=C(O)c1ccc(F)c(F)c1Cl` returned a melting point of 167 to 168 °C.

With `COc1ccc(C=C2SC(=S)N(CC(=O)O)C2=O)cc1OCc1ccccc1`, the melting point is 234 to 239 °C.

On to `Cc1nc(C)c(-c2ccnc(Nc3ccc(NC(=O)CCl)cc3)n2)s1`, for which the melting point lay in the range of 217 to 219 °C. To `CC1=C(C(=O)OC(C)(C)C)C(c2ccccc2F)C(C(=O)OC(C)(C)C)=C(C)N1` belongs 201 to 202 °C; to `CSc1ccc(-c2coc3ccc(-c4nnc(C)o4)cc23)cc1Cl`, 200 to 201 °C.

With `Cc1cc(C)cc(-c2cc(O)c(Sc3ccccc3)c(=O)o2)c1`, the melting point was in the range of 210 to 211 °C. The same measure for `Fc1ccccc1NC(=S)NCc1ccncc1`: 145 °C; for `COc1ccc(N2C(=O)C(C)N(c3ccc(Oc4ccc(O)cc4)cc3)C2=S)cc1` (configuration not stated): 196 to 198 °C. Regarding `Fc1cc(F)nc(NCc2ccccc2)n1`, the melting point lay in the range of 70 to 73 °C. To `CC(C)N(C(=O)c1ccc(OCCCCCOc2ccc(C(N)=NO)cc2)cc1)C(C)C` belongs 146 to 149 °C; to `CC(=O)c1ccc(Oc2ccc(C(C)=O)cc2)cc1`, 102 °C; to `COC(=O)CCC(=O)c1ccc2c(c1)CC(CCNC(C)=O)C2` (configuration not stated), 96 to 97 °C. For the molecule `O=c1[nH]c2ccccc2n1OCc1ccccc1`, the melting point was in the range of 92 to 95 °C. In turn, `COC(=O)C1CCCc2c(-c3ccc(Cl)cc3)nsc2C1` (configuration not stated) registered a melting point of 108 to 109 °C. To `COc1ccc(-n2nc3c(cc2=O)CCSc2sccc2-3)cc1` belongs 126 to 128 °C. The same measure for `Cc1csc(-c2nc(-c3ccc(=O)n(C(C)C)n3)c(-c3ccccc3)nc2N)n1`: 238 to 240 °C. To `CN(C)c1ccc2c(c1)C(=O)N(c1ccc3ccsc3c1)C2` belongs 195 to 197 °C.

Molecule `Cc1ccc(N2C(=O)C(O)=C(C(=O)c3ccc(C(C)C)cc3)C2c2ccc(OC(C)C)cn2)nn1` (configuration not stated) displayed a melting point of 243 to 245 °C. The same measure for `CC1=C(c2ccc(O)cc2)C(=O)c2c(O)cc(O)cc21`: 126 to 129 °C.

Consider `O=C(NCCCCCCCCc1ccccc1)c1cc(-c2cccc(Cl)c2)c(OCCO)c(-c2cccc(Cl)c2)c1`, for which the melting point was 165 to 167 °C. To `COC(=O)CCCC(=O)c1ccc(CCNC(C)=O)cc1` belongs 107 to 108 °C. The same measure for `O=C(c1cccc(OC(F)(F)F)c1)N1CCc2cc(S(=O)(=O)N3CC(c4ccccc4)NC3=O)ccc21` (configuration not stated): 129 to 131 °C. The molecule `CC(CCCCOCCCc1ccc(N2CCCC2)cc1)NCC(O)c1cc(O)cc(O)c1` (configuration not stated) registered a melting point of 57 to 60 °C. `O=C(O)C(=O)Nc1cccc(-c2nnn[nH]2)c1`: the melting point amounted to 240 °C.

Molecule `CN(C)C1(c2ccccc2)CCC2(OCCc3c2[nH]c2ccc(F)cc32)C(F)C1` (configuration not stated) returned a melting point of 237 to 242 °C.

For the molecule `O=C1Nc2ccc(Cl)cc2C1c1ncnc2c1cnn2C1CCCCC1` (configuration not stated), the melting point fell in the range of 300 to 305 °C. Turning to `O=C(O)C=Cc1cc(Oc2c(Cl)cc(C(F)(F)F)cc2Cl)ccc1[N+](=O)[O-]`, the melting point is 192 °C.

`CC(C(=O)NCC(COC(=O)C(C)(C)C)Cc1ccc(C(C)(C)C)cc1)c1ccc(NS(C)(=O)=O)c(Cl)c1` (configuration not stated): the melting point fell in the range of 61 to 63 °C. The molecule `COc1ccn2cc(-c3ccc(C)c(C)c3)nc2c1` returned a melting point of 175 °C. The same measure for `CNC(=O)C=C(C)C=CC=C(C)C=Cc1c(C)cc(OC)c(C)c1C`: 206 °C. To `CCCc1nc(CO)c(C(=O)OCC)n1Cc1ccc(-c2ccccc2C(=O)OC(C)(C)C)cc1` belongs 108 to 110 °C. The same measure for `O=C1CC(=CN2CCOCC2)Oc2c(OCc3ccccc3)cccc21`: 107 to 108 °C. With `CS(=O)(=O)CCCOc1cccc2c1ccn2-c1ccnc(NC2CCC(C(=O)N3CCC(CN)CC3)CC2)n1` (configuration not stated), the melting point is 124 to 126 °C. The same measure for `Cc1cc(C)cc(CC(C)(C)NCC(O)c2cc(O)cc3c2OCC(=O)N3)c1` (configuration not stated): 235 to 238 °C. The same measure for `CCOC=NN=C(c1ccc(Cl)cc1)c1ccc(OS(C)(=O)=O)cc1`: 104 to 107 °C. The same measure for `Nc1ccc(CCn2cccn2)cc1`: 73 to 74 °C; for `CCCCc1nn(-c2cc([N+](=O)[O-])ccc2Cl)c(C(=O)O)c1Cc1ccc(Br)cc1F`: above 55 °C; for `CC(C)c1cccc(C(C)C)c1NC(=O)Nc1cccc2ccc(Oc3ccc4nc(COc5ccc(CC6SC(=O)NC6=O)cc5)n(C)c4c3)cc12` (configuration not stated): 164 to 169 °C.

With `C/C(=N\OC(=O)c1ccc(CNC(=O)OC(C)(C)C)cc1)[C@H]1CC[C@H]2[C@@H]3CCC4=CC(=O)CC[C@]4(C)[C@H]3CC[C@]12C`, the melting point lay in the range of 166 to 168 °C. The same measure for `O=c1c2c(N3CCNCC3)cc(Cl)cc2n(Cc2ccccc2)c(=O)n1CCCc1ccccc1`: 62 to 68 °C.

`Cc1cccc2c1nc(-c1ccccc1[N+](=O)[O-])n2CC(O)C(C)(C)C` (configuration not stated) showed a melting point of 204 °C. With `COC(=O)c1ccc(Cn2nc(CO)c3ccc(C(=O)NCC4CCCC4)cc32)c(OC)c1`, the melting point was in the range of 187 to 188 °C. To `CCOc1cc(C)cc(C)c1C` belongs 93 to 95 °C; to `CC1CC(=O)NN=C1c1ccc(NC(=NC#N)NCc2ccccc2)cc1` (configuration not stated), 228 to 229 °C. To `O=C(Nc1ccc(Cl)cc1)c1cccc(Cl)c1` belongs 124 to 126 °C; to `Cc1ccc(S(=O)(=O)C(CCl)Sc2cccc([N+](=O)[O-])c2)cc1` (configuration not stated), 92 to 101 °C; to `CCCOc1ccc(-c2ccc(N)nn2)cc1OC`, 147 °C. To `CCOC(=O)c1cnoc1-c1ccc(OC)c(OC)c1` belongs 113 to 114 °C; to `CCOP(=O)(Cc1cccc(-c2nc(=O)c3ccccc3s2)n1)OCC`, 116 °C. Molecule `CCCc1c(OCCCOc2ccc(-c3coc(C)n3)c(OC)c2CCC)ccc2c1OC(C(=O)O)CC2` (configuration not stated) displayed a melting point of 111 to 115 °C. The same measure for `CC(C)Oc1ccc(-n2c(C(=O)NCCNC(=O)OC(C)(C)C)c(Cl)c3cc(Oc4ccc(C(F)(F)F)cn4)ccc32)cc1`: 184 to 185 °C. The same measure for `CCCOc1ccc(C(N)=O)cc1-c1ccc(C#N)c(=O)[nH]1`: 246 to 247 °C. To `O=C(CCC(=O)Sc1ccc(O)cc1)Sc1ccc(O)cc1` belongs 226 to 229 °C.
